This is an account of results in patent US12673975B2, “Cyclic peptide, cell scaffold material, cell separating material, and medium” (FUJIFILM Corporation, priority 2019, dated 2026).

Like-named read-outs stand apart in the source and are kept apart here. Starred links: 1 amine or outer side, 2 acyl side, 3 side chain; linkers in the order of their positions; H or OH if unused. Positions of bridges follow the written chain, without caps; N, C: chain ends. Non-standard residues stand in square brackets, D forms with d. Residues, ends and D or L forms follow the SMILES beside them. hCys = N[C@@H](CCS)C(=O)O; Orn = NCCC[C@H](N)C(=O)O; Dab = NCC[C@H](N)C(=O)O; X1 = O=C(C[*:2])[*:1]; X2 = O=C(C[*:1])[*:2]

Series [1] can be described thus: Evaluation of molecule stability (alkali treatment, residual rate by LC/MS). Type of series: physicochemical. Conditions: for Performance evaluation: Stability (residual rate of cyclic peptide after alkali treatment): 500 μM peptide aqueous solution plus equivalent of 1 M sodium hydroxide, 15° C., 3 hours, LC/MS peak area; for Stability (molecule stability, residual rate of the cyclic peptide rank): alkali treatment, residual rate by LC/MS. The method in brief: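 500 μM aqueous cyclic peptide mixed with an equal volume of 1 M NaOH and held 3 h at 15 °C. Residual rate is total LC/MS peak area after treatment relative to untreated (100%), using a C18 column, pH 3 ammonium formate/acetonitrile gradient, 45 °C, ESI±.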

The target of the next series is human integrin αvβ5 (Homo sapiens, UniProt P06756+P18084). The series is described as follows: Evaluation of integrin binding property (surface plasmon resonance, Biacore 3000, immobilized cyclic peptide). The method in brief:
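SPR with cyclic peptide amine-coupled via EDC/NHS to a CM5 chip, blank channel as reference. Integrin αvβ5 at 30, 100, 300 and 1,000 nM injected 10 min at 25 °C in HEPES buffer pH 7.4 with 5 mM MgCl2, 30 min buffer flow, EDTA regeneration; Kd from reference-subtracted signals, graded by category.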

Setting [2] is: SPR, 25° C., HEPES buffer with 5 mM magnesium chloride, integrin 30-1,000 nM, read-out: Performance evaluation: Binding activity (dissociation constant between the cyclic peptide and human integrin αvβ5).
Where [3] appears, read: surface plasmon resonance, immobilized cyclic peptide, human integrin αvβ5, read-out: Binding activity (integrin binding property, dissociation constant rank).

human integrin αvβ5, sequence (P06756 31-1048): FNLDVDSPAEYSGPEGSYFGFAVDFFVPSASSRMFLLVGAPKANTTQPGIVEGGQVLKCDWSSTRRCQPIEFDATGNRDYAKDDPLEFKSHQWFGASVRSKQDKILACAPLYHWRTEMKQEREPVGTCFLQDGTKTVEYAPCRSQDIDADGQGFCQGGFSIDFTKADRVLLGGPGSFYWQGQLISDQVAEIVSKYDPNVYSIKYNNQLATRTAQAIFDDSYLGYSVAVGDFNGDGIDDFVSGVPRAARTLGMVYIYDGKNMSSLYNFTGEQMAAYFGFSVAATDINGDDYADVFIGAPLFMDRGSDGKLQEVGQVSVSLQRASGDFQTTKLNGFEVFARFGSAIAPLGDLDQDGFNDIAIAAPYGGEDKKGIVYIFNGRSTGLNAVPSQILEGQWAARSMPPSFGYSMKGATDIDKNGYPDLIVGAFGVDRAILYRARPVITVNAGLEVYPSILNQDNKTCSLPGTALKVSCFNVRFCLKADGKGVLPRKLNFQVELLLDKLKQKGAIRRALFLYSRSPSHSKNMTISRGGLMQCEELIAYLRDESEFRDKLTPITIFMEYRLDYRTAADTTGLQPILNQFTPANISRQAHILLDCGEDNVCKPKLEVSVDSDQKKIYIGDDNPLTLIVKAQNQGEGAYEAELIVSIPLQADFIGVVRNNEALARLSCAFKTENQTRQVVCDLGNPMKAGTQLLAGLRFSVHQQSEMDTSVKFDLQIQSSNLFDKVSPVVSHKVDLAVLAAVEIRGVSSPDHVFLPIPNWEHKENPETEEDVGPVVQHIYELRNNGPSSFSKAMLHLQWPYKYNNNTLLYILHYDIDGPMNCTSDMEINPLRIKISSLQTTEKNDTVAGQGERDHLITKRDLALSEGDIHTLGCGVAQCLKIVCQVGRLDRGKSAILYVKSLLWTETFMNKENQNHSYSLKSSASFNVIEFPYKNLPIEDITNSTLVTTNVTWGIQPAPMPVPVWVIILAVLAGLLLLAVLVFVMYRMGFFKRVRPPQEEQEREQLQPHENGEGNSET
human integrin αvβ5, sequence (P18084 24-799): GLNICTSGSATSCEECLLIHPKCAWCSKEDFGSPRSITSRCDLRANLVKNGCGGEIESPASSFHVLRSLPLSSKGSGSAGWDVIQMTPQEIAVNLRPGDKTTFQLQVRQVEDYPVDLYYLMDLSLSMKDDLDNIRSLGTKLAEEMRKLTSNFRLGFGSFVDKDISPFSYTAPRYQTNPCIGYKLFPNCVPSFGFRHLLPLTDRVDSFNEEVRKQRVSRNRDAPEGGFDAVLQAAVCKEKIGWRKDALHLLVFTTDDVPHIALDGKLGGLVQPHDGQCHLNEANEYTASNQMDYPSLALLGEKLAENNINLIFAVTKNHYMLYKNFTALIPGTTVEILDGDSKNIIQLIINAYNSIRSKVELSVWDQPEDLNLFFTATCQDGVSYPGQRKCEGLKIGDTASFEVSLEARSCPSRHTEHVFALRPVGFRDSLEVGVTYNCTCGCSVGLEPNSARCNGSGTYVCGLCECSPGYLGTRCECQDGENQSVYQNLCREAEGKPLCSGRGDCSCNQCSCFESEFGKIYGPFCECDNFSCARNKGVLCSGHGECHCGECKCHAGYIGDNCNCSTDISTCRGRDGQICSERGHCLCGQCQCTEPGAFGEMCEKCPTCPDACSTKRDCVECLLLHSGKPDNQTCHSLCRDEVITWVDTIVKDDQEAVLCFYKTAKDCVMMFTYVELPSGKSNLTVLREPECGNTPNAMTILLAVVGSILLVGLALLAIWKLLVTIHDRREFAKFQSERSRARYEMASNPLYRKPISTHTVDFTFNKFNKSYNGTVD

On to `C[C@H](NC(=O)[C@@H]1CCNC(=O)CSCC[C@H](NC(=O)[C@H](CCCCN)NC(=O)[C@H](CCCCN)NC(=O)[C@@H](N)CCCCN)C(=O)N[C@@H](CC(=O)O)C(=O)N2CCC[C@H]2C(=O)N[C@@H](CCCNC(=N)N)C(=O)NCC(=O)N[C@@H](CC(=O)O)C(=O)N[C@@H](CC(N)=O)C(=O)N[C@@H](Cc2ccccc2)C(=O)N[C@@H](CCCNC(=N)N)C(=O)N1)C(=O)O` [Cyclic peptide 22, KKK-(Hcy)-DPRGDNFR(Dab(acetyl))A] (H-KKK[hCys]DPRGDNFR[Dab]A-OH; linker 4-13 via X2), for which the “Performance evaluation: Stability (residual rate of cyclic peptide after alkali treatment)” value in series [1] was “A (The residual rate of the cyclic peptide is 70% or more.)”. Further, the Kd at human integrin αvβ5 (setting [2]) fell in the range of 50 to 100 nM.
With `CC[C@H](C)[C@@H]1NC(=O)[C@@H](NC(=O)[C@H](CCCCN)NC(=O)[C@H](CCCCN)NC(=O)[C@@H](N)CCCCN)CCSCC(=O)NCC[C@@H](C(=O)N[C@@H](C)C(=O)O)NC(=O)[C@H](CCCNC(=N)N)NC(=O)[C@H](Cc2ccccc2)NC(=O)[C@H]([C@@H](C)O)NC(=O)[C@H](CC(=O)O)NC(=O)CNC(=O)[C@H](CCCNC(=N)N)NC(=O)[C@@H]2CCCN2C1=O` [Cyclic peptide 57, KKK-(Hcy)-IPRGDTFR(Dab(acetyl))A] (H-KKK[hCys]IPRGDTFR[Dab]A-OH; linker 4-13 via X2), the “Performance evaluation: Stability (residual rate of cyclic peptide after alkali treatment)” value in series [1] is listed as “A (The residual rate of the cyclic peptide is 70% or more.)”. Also, the Kd on human integrin αvβ5 (setting [2]) is under 50 nM.
Regarding `CC[C@H](C)[C@@H]1NC(=O)[C@@H](NC(=O)[C@H](C)NC(=O)[C@H](CCCCN)NC(=O)[C@H](CCCCN)NC(=O)[C@@H](N)CCCCN)CCSCC(=O)NCC[C@@H](C(=O)N[C@@H](C)C(=O)O)NC(=O)[C@H](CO)NC(=O)[C@H](Cc2ccccc2)NC(=O)[C@H]([C@@H](C)O)NC(=O)[C@H](CC(=O)O)NC(=O)CNC(=O)[C@H](CCCNC(=N)N)NC(=O)[C@@H]2CCCN2C1=O` [Cyclic peptide 83, KKKA-(Hcy)-IPRGDTFS(Dab(acetyl))A] (H-KKKA[hCys]IPRGDTFS[Dab]A-OH; linker 5-14 via X2), the “Performance evaluation: Stability (residual rate of cyclic peptide after alkali treatment)” value in series [1] is listed as “A (The residual rate of the cyclic peptide is 70% or more.)”. At human integrin αvβ5 (setting [2]), the Kd was under 50 nM.
The corresponding values for `CC[C@H](C)[C@@H]1NC(=O)[C@@H](NC(=O)[C@H](C)NC(=O)[C@H](CCCCN)NC(=O)[C@H](CCCCN)NC(=O)[C@@H](N)CCCCN)CCSCC(=O)NCC[C@@H](C(=O)NCC(=O)O)NC(=O)[C@H](C)NC(=O)[C@H](Cc2ccccc2)NC(=O)[C@H]([C@@H](C)O)NC(=O)[C@H](CC(=O)O)NC(=O)CNC(=O)[C@H](CCCNC(=N)N)NC(=O)[C@@H]2CCCN2C1=O` [Cyclic peptide 85, KKKA-(Hcy)-IPRGDTFA(Dab(acetyl))G] (H-KKKA[hCys]IPRGDTFA[Dab]G-OH; linker 5-14 via X2) are “A (The residual rate of the cyclic peptide is 70% or more.)” and under 50 nM.
For `CC(C)[C@@H]1NC(=O)[C@@H](NC(=O)[C@H](CCCCN)NC(=O)[C@H](CCCCN)NC(=O)[C@@H](N)CCCCN)CCSCC(=O)NCC[C@@H](C(=O)O)NC(=O)[C@H](C)NC(=O)[C@H](Cc2ccccc2)NC(=O)[C@H]([C@@H](C)O)NC(=O)[C@H](CC(=O)O)NC(=O)CNC(=O)[C@H](CCCNC(=N)N)NC(=O)[C@H]([C@@H](C)O)NC1=O` [Cyclic peptide 150, KKK-(Hcy)-VTRGDTFA(Dab(acetyl))] (H-KKK[hCys]VTRGDTFA[Dab]-OH; linker 4-13 via X2), the “Stability (molecule stability, residual rate of the cyclic peptide rank)” value in series [1] is “A (The residual rate of the cyclic peptide is 70% or more.)”. For the same compound, at human integrin αvβ5 (setting [3]), the Kd was under 50 nM.
With `CC[C@H](C)[C@@H]1NC(=O)[C@@H](NC(=O)CNC(=O)[C@H](CCCCN)NC(=O)[C@H](CCCCN)NC(=O)[C@@H](N)CCCCN)CCSCC(=O)NCC[C@@H](C(=O)N[C@@H](C)C(=O)O)NC(=O)[C@H](Cc2ccccc2)NC(=O)[C@H]([C@@H](C)O)NC(=O)[C@H](CC(=O)O)NC(=O)CNC(=O)[C@H](CCCNC(=N)N)NC(=O)[C@@H]2CCCN2C1=O` [Cyclic peptide 58, KKKG-(Hcy)-IPRGDTF(Dab(acetyl))A] (H-KKKG[hCys]IPRGDTF[Dab]A-OH; linker 5-13 via X2), the “Performance evaluation: Stability (residual rate of cyclic peptide after alkali treatment)” value in series [1] was “A (The residual rate of the cyclic peptide is 70% or more.)”. For the same compound, the Kd on human integrin αvβ5 (setting [2]) is under 50 nM.
Consider `CC(C)[C@@H]1NC(=O)[C@@H](NC(=O)[C@H](CCCCN)NC(=O)[C@H](CCCCN)NC(=O)[C@@H](N)CCCCN)CCSCC(=O)NCC[C@@H](C(=O)O)NC(=O)[C@H]([C@@H](C)O)NC(=O)[C@H](Cc2ccccc2)NC(=O)[C@H]([C@@H](C)O)NC(=O)[C@H](CC(=O)O)NC(=O)CNC(=O)[C@H](CCCNC(=N)N)NC(=O)[C@@H]2CCCN2C1=O` [Cyclic peptide 154, KKK-(Hcy)-VPRGDTFT(Dab(acetyl))] (H-KKK[hCys]VPRGDTFT[Dab]-OH; linker 4-13 via X2), for which the “Stability (molecule stability, residual rate of the cyclic peptide rank)” value in series [1] was “A (The residual rate of the cyclic peptide is 70% or more.)”. Besides, at human integrin αvβ5 (setting [3]), the Kd lay in the range of 50 to 100 nM.
For `CC(C)[C@@H]1NC(=O)[C@@H](N)CCSCC(=O)NCC[C@@H](C(=O)N[C@@H](CCCCN)C(=O)N[C@@H](CCCCN)C(=O)N[C@@H](CCCCN)C(=O)O)NC(=O)[C@H](C)NC(=O)[C@H](Cc2ccccc2)NC(=O)[C@H]([C@@H](C)O)NC(=O)[C@H](CC(=O)O)NC(=O)CNC(=O)[C@H](CCCNC(=N)N)NC(=O)[C@@H]2CCCN2C1=O` [Cyclic peptide 103, (Hcy)-VPRGDTFA(Dab(acetyl))KKK] (H-[hCys]VPRGDTFA[Dab]KKK-OH; linker 1-10 via X2), in that order: “A (The residual rate of the cyclic peptide is 70% or more.)” and under 50 nM.
On to `CC[C@H](C)[C@@H]1NC(=O)[C@@H](NC(=O)[C@H](C)N)CCSCC(=O)NCC[C@@H](C(=O)NCC(=O)O)NC(=O)[C@H](C)NC(=O)[C@H](Cc2ccccc2)NC(=O)[C@H](CO)NC(=O)[C@H](CC(=O)O)NC(=O)CNC(=O)[C@H](CCCNC(=N)N)NC(=O)[C@@H]2CCCN2C1=O` [Cyclic peptide 127, A-(Hcy)-IPRGDSFA(Dab(acetyl))G] (H-A[hCys]IPRGDSFA[Dab]G-OH; linker 2-11 via X2), for which, in series [1], the “Stability (molecule stability, residual rate of the cyclic peptide rank)” value was “A (The residual rate of the cyclic peptide is 70% or more.)”. Further, the Kd on human integrin αvβ5 (setting [3]) was under 50 nM.
The corresponding values for `CC[C@H](C)[C@@H]1NC(=O)[C@@H](NC(=O)CNC(=O)[C@H](CCCCN)NC(=O)[C@H](CCCCN)NC(=O)[C@@H](N)CCCCN)CCCNC(=O)CSCC[C@@H](C(=O)N[C@@H](C)C(=O)O)NC(=O)[C@H](CCCNC(=N)N)NC(=O)[C@H](Cc2ccccc2)NC(=O)[C@H]([C@@H](C)O)NC(=O)[C@H](CC(=O)O)NC(=O)CNC(=O)[C@H](CCCNC(=N)N)NC(=O)[C@@H]2CCCN2C1=O` [Cyclic peptide 119, KKKG(Orn(acetyl))IPRGDTFR-(Hcy)-A] (H-KKKG[Orn]IPRGDTFR[hCys]A-OH; linker 5-14 via X1) are “A (The residual rate of the cyclic peptide is 70% or more.)” and under 50 nM.
